Tests used:
[1] = Growth inhibition of human COLO205 cells after 48 hrs by sulforhodamine B assay; format: functional; details: COLO 205, 48 h
[2] = tested on: Paracentrotus lividus; assay: Antimitotic microtubule destabilizing activity in Paracentrotus lividus L embryos assessed as induction of cleavage alteration
[3] = tested on: MCF7; assay: Growth inhibition of human MCF7 cells after 48 hrs by sulforhodamine B assay; format: functional; details: MCF7, 48 h
[4] = Growth inhibition of human PC3 cells after 48 hrs by sulforhodamine B assay; format: functional; details: PC-3, 48 h
[5] = tested on: Paracentrotus lividus; assay: Antimitotic microtubule destabilizing activity in Paracentrotus lividus L embryos assessed as induction of embryo spinning
[6] = tested on: HL-60(TB); assay: Growth inhibition of human HL-60(TB) cells after 48 hrs by sulforhodamine B assay; format: functional; details: HL-60, 48 h
[7] = Growth inhibition of human RXF393 cells after 48 hrs by sulforhodamine B assay; format: functional; details: RXF 393, 48 h
[8] = Growth inhibition of human Hs 578T cells after 48 hrs by sulforhodamine B assay; format: functional
[9] = tested on: DU-145; assay: Growth inhibition of human DU145 cells after 48 hrs by sulforhodamine B assay; format: functional; details: DU-145, 48 h
[10] = tested on: SF-268; assay: Growth inhibition of human SF268 cells after 48 hrs by sulforhodamine B assay; format: functional; details: SF-268, 48 h
[11] = tested on: A549; assay: Growth inhibition of human A549/ATCC cells after 48 hrs by sulforhodamine B assay; format: functional; details: A549, 48 h
[12] = tested on: HT-29; assay: Growth inhibition of human HT-29 cells after 48 hrs by sulforhodamine B assay; format: functional; details: HT-29, 48 h
[13] = tested on: M14; assay: Growth inhibition of human M14 cells after 48 hrs by sulforhodamine B assay; format: functional; details: M14, 48 h
[14] = tested on: KM12; assay: Growth inhibition of human KM12 cells after 48 hrs by sulforhodamine B assay; format: functional; details: KM12, 48 h
[15] = tested on: T47D; assay: Growth inhibition of human T47D cells after 48 hrs by sulforhodamine B assay; format: functional
[16] = tested on: NCI-H522; assay: Growth inhibition of human NCI-H522 cells after 48 hrs by sulforhodamine B assay; format: functional; details: NCI-H522, 48 h
[17] = Growth inhibition of human UO31 cells after 48 hrs by sulforhodamine B assay; format: functional; details: UO-31, 48 h
[18] = tested on: CAKI-1; assay: Growth inhibition of human CAKI-1 cells after 48 hrs by sulforhodamine B assay; format: functional; details: CAKI-1, 48 h
[19] = tested on: U-251; assay: Growth inhibition of human U251 cells after 48 hrs by sulforhodamine B assay; format: functional; details: U-251, 48 h
[20] = tested on: IGROV-1; assay: Growth inhibition of human IGROV1 cells after 48 hrs by sulforhodamine B assay; format: functional; details: IGROV-1, 48 h
[21] = Growth inhibition of human RPMI8226 cells after 48 hrs by sulforhodamine B assay; format: functional; details: RPMI-8226, 48 h
[22] = tested on: Paracentrotus lividus; assay: Antimitotic microtubule destabilizing activity in Paracentrotus lividus L embryos assessed as induction of cleavage arrest
[23] = tested on: 786-0; assay: Growth inhibition of human 786-0 cells after 48 hrs by sulforhodamine B assay; format: functional; details: 786-0, 48 h
[24] = Growth inhibition of human SF295 cells after 48 hrs by sulforhodamine B assay; format: functional; details: SF-295, 48 h
[25] = tested on: CCRF-CEM; assay: Growth inhibition of human CCRF-CEM cells after 48 hrs by sulforhodamine B assay; format: functional
[26] = tested on: NCI-H460; assay: Growth inhibition of human NCI-H460 cells after 48 hrs by sulforhodamine B assay; format: functional; details: NCI-H460, 48 h
[27] = tested on: NCI-H322M; assay: Growth inhibition of human NCI-H322M cells after 48 hrs by sulforhodamine B assay; format: functional
[28] = tested on: MDA-MB-231; assay: Growth inhibition of human MDA-MB-231 cells after 48 hrs by sulforhodamine B assay; format: functional; details: MDA-MB-231, 48 h
[29] = tested on: SNB-75; assay: Growth inhibition of human SNB75 cells after 48 hrs by sulforhodamine B assay; format: functional; details: SNB-75, 48 h
[30] = Growth inhibition of human BT549 cells after 48 hrs by sulforhodamine B assay; format: functional; details: BT-549, 48 h
[31] = Growth inhibition of human UACC62 cells after 48 hrs by sulforhodamine B assay; format: functional; details: UACC-62, 48 h
[32] = Growth inhibition of human SF539 cells after 48 hrs by sulforhodamine B assay; format: functional; details: SF-539, 48 h
[33] = tested on: ACHN; assay: Growth inhibition of human ACHN cells after 48 hrs by sulforhodamine B assay; format: functional
[34] = Cytotoxicity against human NCI60 cells; format: functional
[35] = tested on: SN12C; assay: Growth inhibition of human SN12C cells after 48 hrs by sulforhodamine B assay; format: functional
[36] = tested on: MDA-MB-468; assay: Growth inhibition of human MDA-MB-468 cells after 48 hrs by sulforhodamine B assay; format: functional; details: MDA-MB-468, 48 h
[37] = Growth inhibition of human HCT116 cells after 48 hrs by sulforhodamine B assay; format: functional; details: HCT-116, 48 h
[38] = tested on: MDA-MB-435; assay: Growth inhibition of human MDA-MB-435 cells after 48 hrs by sulforhodamine B assay; format: functional; details: MDA-MB-435, 48 h
[39] = tested on: SK-MEL-5; assay: Growth inhibition of human SK-MEL-5 cells after 48 hrs by sulforhodamine B assay; format: functional; details: SK-MEL-5, 48 h
[40] = Growth inhibition of human EKVX cells after 48 hrs by sulforhodamine B assay; format: functional
[41] = Growth inhibition of human HCT15 cells after 48 hrs by sulforhodamine B assay; format: functional; details: HCT-15, 48 h
[42] = Growth inhibition of human HOP92 cells after 48 hrs by sulforhodamine B assay; format: functional; details: HOP-92, 48 h
[43] = tested on: SR; assay: Growth inhibition of human SR cells after 48 hrs by sulforhodamine B assay; format: functional
[44] = Growth inhibition of human UACC257 cells after 48 hrs by sulforhodamine B assay; format: functional; details: UACC-257, 48 h
[45] = tested on: NCI-H23; assay: Growth inhibition of human NCI-H23 cells after 48 hrs by sulforhodamine B assay; format: functional; details: NCI-H23, 48 h
[46] = tested on: NCI-H226; assay: Growth inhibition of human NCI-H226 cells after 48 hrs by sulforhodamine B assay; format: functional; details: NCI-H226, 48 h
[47] = tested on: SNB-19; assay: Growth inhibition of human SNB19 cells after 48 hrs by sulforhodamine B assay; format: functional; details: SNB-19, 48 h
[48] = tested on: SK-OV-3; assay: Growth inhibition of human SKOV3 cells after 48 hrs by sulforhodamine B assay; format: functional; details: SK-OV-3, 48 h
[49] = tested on: HOP-62; assay: Growth inhibition of human HOP62 cells after 48 hrs by sulforhodamine B assay; format: functional; details: HOP-62, 48 h
[50] = tested on: K562; assay: Growth inhibition of human K562 cells after 48 hrs by sulforhodamine B assay; format: functional; details: K562, 48 h
[51] = tested on: A498; assay: Growth inhibition of human A498 cells after 48 hrs by sulforhodamine B assay; format: functional; details: A498, 48 h
[52] = Growth inhibition of human NCI-ADR-RES cells after 48 hrs by sulforhodamine B assay; format: functional
[53] = tested on: SK-MEL-2; assay: Growth inhibition of human SK-MEL-2 cells after 48 hrs by sulforhodamine B assay; format: functional; details: SK-MEL-2, 48 h
[54] = Growth inhibition of human OVCAR8 cells after 48 hrs by sulforhodamine B assay; format: functional; details: OVCAR-8, 48 h
[55] = Growth inhibition of human H1299 cells after 48 hrs by sulforhodamine B assay; format: functional; details: NCI-H1299, 48 h
[56] = tested on: SW-620; assay: Growth inhibition of human SW620 cells after 48 hrs by sulforhodamine B assay; format: functional; details: SW-620, 48 h
[57] = Growth inhibition of human HCC2998 cells after 48 hrs by sulforhodamine B assay; format: functional; details: HCC 2998, 48 h
[58] = Growth inhibition of human LOXIMVI cells after 48 hrs by sulforhodamine B assay; format: functional; details: LOX IMVI
[59] = Growth inhibition of human MOLT4 cells after 48 hrs by sulforhodamine B assay; format: functional; details: MOLT-4, 48 h
[60] = Growth inhibition of human OVCAR4 cells after 48 hrs by sulforhodamine B assay; format: functional; details: OVCAR-4, 48 h
[61] = Growth inhibition of human OVCAR3 cells after 48 hrs by sulforhodamine B assay; format: functional; details: OVCAR-3, 48 h

Work on `COc1ccc2c(c1)OC(N)=C(C#N)C2c1cc(OC)c(OC)c(OC)c1` (racemic) yielded a GI50 [1] of 28.1 nM, an EC [2] of 0.01 µM and a GI50 [3] of 34.2 nM. For the same compound, the GI50 [4] was 42.8 nM, the EC [5] was 0.5 µM and the GI50 [6] was 25.6 nM. For the same compound, the GI50 [7] was 25.9 nM, the GI50 [8] was 49 nM and the GI50 [9] was 25.2 nM. For the same compound, the GI50 [10] was 73.2 nM, the GI50 [11] was 37.6 nM and the GI50 [12] was 27.8 nM. It also gave a GI50 [13] of 25.5 nM, a GI50 [14] of 25.1 nM and a GI50 [15] of over 100000 nM. It also gave a GI50 [16] of 12.3 nM, a GI50 [17] of 1570 nM and a GI50 [18] of 146 nM. For the same compound, the GI50 [19] was 26.2 nM, the GI50 [20] was 42.5 nM and the GI50 [21] was 37.9 nM. The EC [22] was 0.05 µM, the GI50 [23] was 49.4 nM and the GI50 [24] was 25.2 nM. It also gave a GI50 [25] of 33.7 nM, a GI50 [26] of 34.4 nM and a GI50 [27] of 48 nM. For the same compound, the GI50 [28] was 38.1 nM, the GI50 [29] was 42.9 nM and the GI50 [30] was 25 nM. For the same compound, the GI50 [31] was 37.9 nM, the GI50 [32] was 33.5 nM and the GI50 [33] was 76 nM. It also gave a GI50 [34] of 45 nM, a GI50 [35] of 58.7 nM and a GI50 [36] of 21.6 nM. For the same compound, the GI50 [37] was 30.6 nM, the GI50 [38] was 15 nM and the GI50 [39] was 24 nM. The GI50 [40] was 251 nM, the GI50 [41] was 32.8 nM and the GI50 [42] was 20.7 nM. It also gave a GI50 [43] of 27.1 nM, a GI50 [44] of 37.1 nM and a GI50 [45] of 36.5 nM. It also gave a GI50 [46] of 83.9 nM, a GI50 [47] of 86.4 nM and a GI50 [48] of 33 nM. For the same compound, the GI50 [49] was 62.6 nM, the GI50 [50] was 34.3 nM and the GI50 [51] was 20.9 nM. The GI50 [52] was 19.9 nM, the GI50 [53] was 27.6 nM and the GI50 [54] was 34.5 nM. It also gave a GI50 [55] of 45 nM, a GI50 [56] of 38.8 nM and a GI50 [57] of 28.2 nM. It also gave a GI50 [58] of 34 nM, a GI50 [59] of 37 nM and a GI50 [60] of 80.8 nM. The GI50 [61] was 25.8 nM.

Reference: ChEMBL document CHEMBL3352739, “Comparative in vivo evaluation of polyalkoxy substituted 4H-chromenes and oxa-podophyllotoxins as microtubule destabilizing agents in the phenotypic sea urchin embryo assay” (2014)
